According to ChEMBL document CHEMBL3988442, “University of Dundee, Small-Polar-MMV Screening Library” (2021):

Each molecule was assayed on Schistosoma mansoni (assay: High throughput screening of compounds against Schistosoma mansoni motility).
Format: functional
Set-up: dose or concentration left out as unconfirmed

Compound | Percent Effect
Cc1cc(C(=O)N2CCCC2c2nnc3n2CCCCC3)no1 (centres undefined) | -2.272%
CCc1noc(C(C)N(C)CC(=O)Nc2cccc(C)n2)n1 (centres undefined) | 0.2571%
Cc1nc(C)n(CC2CCCCN2CC(=O)Nc2cccnc2)n1 (centres undefined) | -10.51%
Cl.NC(=O)COc1ccc(CNCc2ccc(F)cc2F)cc1 | -10.97%
COCCCC1(CO)CCCN(CCS(C)(=O)=O)C1 (centres undefined) | -38.37%
Cn1c(C(F)(F)F)nn(CCNC(=O)NCc2ccccc2)c1=O | 16.6%
CC(=O)NC(C)CC(=O)NCc1cccnc1Oc1ccccc1C (centres undefined) | 11.59%
CCC(O)CNC(=O)c1coc(COc2ccc3sc(C)nc3c2)n1 (centres undefined) | -24.85%
Cc1cc(C[C@@H]2COC[C@@H]2NC(=O)Cn2c(=O)oc3ccccc32)on1 | -26.12%
CCc1nnc2n1CCN(C(=O)c1cnc3ccccc3n1)C2 | -44.56%
Cn1ncc2c(NCCOc3ccc(F)cc3)nc(C3CCCC3)nc21 | 106.6%
Cc1cc(N2CCC(N(C)C(=O)Nc3ccccc3)CC2)nc(C)n1 | -25.09%
CNC(=O)CSc1nc2c(cnn2Cc2ccc(F)cc2)c(=O)[nH]1 | -34.73%
Cc1ncsc1CCC(=O)NCc1cc2n(n1)CCN(C(=O)N(C)C)C2 | 10.91%
Cc1ccnc(OCC(=O)N2CCC(C(N)=O)CC2)n1 | -71.31%
CSCC(CCO)NC(=O)Nc1cc(C)ccc1C (centres undefined) | -11.31%
Cc1nc[nH]c1-c1nc2cc(S(=O)(=O)N3CCCC3)ccc2n1C | -57.95%
CN(C)C(=O)c1ccc2c(c1)N(C)C(CC(=O)NC(C)(C)CO)CO2 (centres undefined) | 4.699%
CC(O)CN1CCC(CNCc2ccc(S(C)(=O)=O)cc2)CC1 (centres undefined) | -16.24%
NC(=O)CSCCC(=O)N1CCCC1c1ccsc1 (centres undefined) | 10.97%
Cc1nc(CN2CCCC2c2nc(C(C)C)no2)cs1 (centres undefined) | -46.84%
COc1cccc(N2CCN(Cc3ccc(NC(C)=O)cc3)CC2=O)c1 | -11.44%

Compound | Percent Effect
Cc1cn(-c2ccccc2)nc1NS(=O)(=O)c1cccc(C(=O)O)c1 | -30.44%
CC[C@@]1(O)CCN(C(=O)c2ccc(SC)cc2)C[C@H]1O | 20.95%
Cc1cc(N2CCN3CCCCC3C2)n2nc(C)c(C)c2n1 (centres undefined) | -7.768%
O=C(CCCc1cn[nH]c1)N1C[C@@H](CN2CCOCC2)[C@@H](CO)C1 | -60.63%
Cc1ccc2cc(C3(O)CCN(C(=O)CN4CCCC4)CC3)ccc2n1 | 5.836%
Cc1ccccc1S(=O)(=O)NC(=O)CSc1ccc2c(c1)OCCO2 | -27.11%
O=C(c1cc(Cl)c2c(c1)OCO2)N1CCN(c2ccccn2)CC1 | -95.4%
Cc1ccc(C(=O)N2CCC3(CCC(=O)N(CC(N)=O)C3)CC2)c(O)c1 | -13.5%
CSCC(C)(O)CNC(=O)c1cc(Br)ccc1Cl (centres undefined) | -27.72%
CN(CCc1ccccc1)c1cnn(CC(=O)N2CCSCC2)c(=O)c1 | -28.25%
COc1cccc(N2CCN(Cc3ncc[nH]3)CC2=O)c1 | -64.93%
CC(C)C1CN(c2ncccn2)CCC(=O)N1Cc1ccc(F)cc1 (centres undefined) | -32.66%
COc1ccccc1CC(=O)NCCCN1CCCC1C(=O)N(C)C (centres undefined) | -6.29%
CCCC(C)CN1CCC(n2cc(CCCO)nn2)CC1 (centres undefined) | -31.48%
O=C(CSc1ncccn1)N1C[C@H]2CC[C@@H]1CN(Cc1ccncc1)C2 | -45.84%
O=c1nc(SCc2ccncc2)c2c(n1CCO)CCCC2 | -51.22%
O=C(NCc1ccoc1)Nc1ccc(CN2CCOC2=O)cc1 | -8.505%
NC(=O)c1cccc(CC2CCN(C(=O)CCCN3CCOCC3)C2)c1 (centres undefined) | -44.07%
COc1ccc(OC)c(CNCCc2cc(F)cc3c2OCOC3)c1 | 89.81%
O=C1CCCCN1Cc1cccc(NC(=O)N2CCSCC2)c1 | 22.51%
Cc1nc(C)n(CC2CCCN2CC(=O)NCCc2ccccc2)n1 (centres undefined) | -20.52%
CN(C)C(=O)c1ccc2c(c1)N(C)C(CC(=O)NCCC(C)(C)C)CO2 (centres undefined) | -13.7%
